Among the data in ChEMBL document CHEMBL3301464, “MMV Malaria Box anti-babesial screening” are IC50 values, retold here.

Test [1] is described as follows: (§1) MMV: Anti-babesial activity assay. Parasite pRBCs at 1% parasitemia were cultivated in 100 ul with 96-well plates at 2.5% and 5% hematocrits. The parasites were cultivated in triplicate for 4 days without replacement of the medium for each concentration of the compound. The format is functional, Babesia caballi.
Test [2] can be described thus: as §1. The format is functional, Babesia bigemina.
A short description of test [3]: as §1. Format: functional, Babesia bovis.
A short description of test [4]: as §1. Format: functional, Babesia equi.

The structures appear in SMILES notation. Where only a bound is given, the exact number is not on record here.

Turning to `Oc1ccccc1CN1CCC2(CCCN(Cc3ccccc3F)C2)C1` (stereo not drawn), the IC50 was found to be 5.06 µM in test [1], 0.73 µM in test [2], 14.3 µM in test [3] and 0.1 µM in test [4].

As to `COc1cccc(C=Cc2nc(=O)c3ccccc3o2)c1OC`, the IC50 was 22.3 µM in test [1], 20 µM in test [2], more than 25 µM in test [3] and 16.5 µM in test [4].

On to `Cc1ccccc1OCCSc1nc2ccc(NC(=O)c3cccs3)cc2s1`, for which the IC50 in test [1] is 5.51 µM; in test [2] it was 5.09 µM; in test [3], 7.81 µM; in test [4], 22.3 µM.

Regarding `OC(CNC1CCCCC1)Cn1c2ccc(I)cc2c2cc(I)ccc21` (stereo not drawn), the IC50 in test [1] worked out at 3.73 µM; in test [2], 16.5 µM; in test [3], 1.3 µM; in test [4] it was 2.17 µM.

As for `Cc1ccc(-c2cc(C(=O)Nc3ccc(S(=O)(=O)N4CCCCC4)cc3)[nH]n2)c(O)c1`, the IC50 in test [1] is 10 µM; in test [2], 2.45 µM; in test [3] it was more than 25 µM; in test [4] it was 8.25 µM.

In the case of `Cc1sc(NC(=O)c2ccco2)c(C(c2cccnc2)N2CCC(Cc3ccccc3)CC2)c1C` (stereo not drawn), the IC50 stood at 0.45 µM in test [1], 0.073 µM in test [2], 0.086 µM in test [3] and 17.5 µM in test [4].

Regarding `O=C1CC(O)(C(F)(F)C(F)(F)F)Oc2ccccc21` (stereo not drawn), the IC50 in test [1] is 0.8 µM; in test [2] it was 16.3 µM; in test [3] it was more than 25 µM; in test [4], 0.65 µM.

Regarding `CCOc1ccc(-n2cc(-c3ccccc3)c3c(SCc4cc(C)ccc4C)ncnc32)cc1`, the IC50 stood at 16.5 µM in test [1], 10.7 µM in test [2], 14.6 µM in test [3] and 13.9 µM in test [4].

Take `CCOc1ccc(N2C(N)=NC(N)=NC2(C)C)cc1`: the half-inhibitory concentration (IC50) in test [1] was 2.95 µM; in test [2] it was 5.9 µM; in test [3], 15.2 µM; in test [4], 14 µM.

For the compound `Cc1ccc(-c2nc3ccccc3o2)cc1NCc1cc(Cc2ccccc2)ccc1O`, the IC50 in test [1] stood at 1.05 µM; in test [2], 1 µM; in test [3] it was 7.13 µM; in test [4], 9.67 µM.

As to `CC(C)(C)CC(C)(C)NCC(O)COc1ccc(Cl)cc1Cl` (stereo not drawn), the IC50 worked out at 0.071 µM in test [1], 0.32 µM in test [2], 0.083 µM in test [3] and 0.53 µM in test [4].

As to `CCOc1ccccc1CN1CCc2nc3cc(C(C)(C)C)nn3c(O)c2C1`, the IC50 turned out to be 0.068 µM in test [1], 9.87 µM in test [2], 20.2 µM in test [3] and 10.1 µM in test [4].

As for `COc1ccc(CN2CCN(Cc3ccccc3)CC2)c(O)c1`, the IC50 in test [1] worked out at 12 µM; in test [2] it was 15.2 µM; in test [3], 8.22 µM; in test [4] it was 10 µM.

With `CC(C)CCNCC(O)Cn1c2ccccc2c2ccccc21` (stereo not drawn), the 50% inhibitory concentration (IC50) in test [1] is 0.38 µM; in test [2] it was 0.76 µM; in test [3], 0.081 µM; in test [4], 0.84 µM.

With `O=c1cc(NC2CCN(CCCc3ccccc3)CC2)c2cc(Cl)ccc2o1`, the IC50 was determined as 16.5 µM in test [1], 10 µM in test [2], 18.2 µM in test [3] and 8.77 µM in test [4].

For the compound `COc1ccc2c(c1)OC(O)(C(F)(F)C(F)(F)F)CC2=O` (stereo not drawn), the IC50 in test [1] was 11.8 µM; in test [2] it was 15.7 µM; in test [3], more than 25 µM; in test [4], 17.7 µM.

`Oc1ccccc1CN1CCN(C(c2ccccc2)c2ccccc2)CC1`: the IC50 amounted to 3.72 µM in test [1], 25 µM in test [2], 15.3 µM in test [3] and 4.37 µM in test [4].

`OC(CNC1CCCCC1)Cn1c2ccccc2c2ccccc21` (stereo not drawn): the IC50 in test [1] came out at 13.8 µM; in test [2], 17.3 µM; in test [3], 17.3 µM; in test [4], 17.3 µM.

Consider `Cn1c(=O)c2cc(C(=O)NCCCN3CCCCCC3)sc2c2ccccc21`, for which the IC50 in test [1] was found to be 13.9 µM; in test [2], 8.03 µM; in test [3], 10 µM; in test [4], 5.35 µM.

Turning to `Cc1ccnc(NC(c2cccc(OCc3ccccc3)c2)c2ccc3cccnc3c2O)c1` (stereo not drawn), the IC50 in test [1] is 4.17 µM; in test [2] it was 13.8 µM; in test [3] it was 1.9 µM; in test [4] it was 1.4 µM.

For `COc1ccc(-c2nc(NC(=O)CS(=O)(=O)c3ccc(F)cc3)sc2C)cc1`, the IC50 in test [1] was determined as 14.6 µM; in test [2], 17 µM; in test [3] it was 17.9 µM; in test [4] it was 13.4 µM.

As to `CC1=C(CC(=O)c2cccc([N+](=O)[O-])c2)C(=O)c2ccccc2C1=O`, the IC50 in test [1] turned out to be 6.86 µM; in test [2] it was 0.49 µM; in test [3], 0.36 µM; in test [4] it was 4.85 µM.

As for `COc1ccc(C(=O)C(CCC(CNC(C)(C)C)C(=O)c2ccc(OC)cc2)CNC(C)(C)C)cc1` (stereo not drawn), the IC50 in test [1] was determined as 4.68 µM; in test [2] it was 2.95 µM; in test [3], 0.57 µM; in test [4], 0.17 µM.

Take `CCCCOC(=O)c1ccc(Nc2cc(C)nc3ccc(OC)cc23)cc1`: the IC50 is 17.8 µM in test [1], 10 µM in test [2], 22.7 µM in test [3] and 18.1 µM in test [4].

As for `COc1ccc(C(=O)Nc2ccc(Cl)cc2C(=O)Nc2ccncc2)cc1`, the IC50 in test [1] was 6.4 µM; in test [2], 0.65 µM; in test [3] it was 3.53 µM; in test [4], 10 µM.

In the case of `COc1ccc2c(c1)C1(Nc3ccccc3-c3nc4ccccc4n31)C(=O)N2` (stereo not drawn), the IC50 in test [1] was 3.9 µM; in test [2] it was 14.2 µM; in test [3] it was 16.8 µM; in test [4], 3.52 µM.

On to `O=c1c2c([nH]c3ccccc13)CCCC2`, for which the IC50 in test [1] stood at 4.09 µM; in test [2], 5.93 µM; in test [3], 2.45 µM; in test [4], 4.27 µM.

Regarding `c1ccc2c(NCCc3c[nH]c4ccccc34)c3ccccc3nc2c1`, the IC50 in test [1] turned out to be 0.21 µM; in test [2], 1.03 µM; in test [3] it was 0.71 µM; in test [4], 1.39 µM.

On to `c1ccc(CNc2nc(Nc3ccccc3)nc3ccccc23)cc1`, for which the IC50 in test [1] came to 3.73 µM; in test [2] it was 10 µM; in test [3], 4.06 µM; in test [4], 2.12 µM.

Take `Cc1cc(N2CCCC2)nc(Nc2ccc(NC(=O)CCc3ccccc3)cc2)n1`: the 50% inhibitory concentration (IC50) is 3.53 µM in test [1], 13.4 µM in test [2], 15.5 µM in test [3] and 3.02 µM in test [4].

Turning to `Cc1ccc(Nc2nc(N)c3ccccc3n2)cc1Cl`, the IC50 is 10 µM in test [1], 9.87 µM in test [2], 6.31 µM in test [3] and 16.5 µM in test [4].

On to `CCOc1ccc(-c2nonc2NC(=O)c2cccc(C)c2)cc1OCC`, for which the IC50 in test [1] is 17.5 µM; in test [2], 13.1 µM; in test [3], 19.9 µM; in test [4], 18.5 µM.

Consider `O=C(Nc1ccc(Br)cc1)Nc1cccc(Cl)c1`, for which the IC50 in test [1] is more than 25 µM; in test [2], 12.8 µM; in test [3], 7.66 µM; in test [4] it was 9.12 µM.

Regarding `CCc1c(C)c(=N)c2ccccc2n1C`, the IC50 in test [1] turned out to be 0.26 µM; in test [2] it was 3.42 µM; in test [3] it was 18.4 µM; in test [4], 7.23 µM.

Regarding `N=c1c2ccccc2nnn1-c1cccc(C(F)(F)F)c1`, the IC50 is 18.1 µM in test [1], 19.1 µM in test [2], 15 µM in test [3] and 9.18 µM in test [4].

For `OC(CNC1CCCC1)Cn1c2ccccc2c2ccccc21` (stereo not drawn), the IC50 stood at 3.53 µM in test [1], 17.3 µM in test [2], 1 µM in test [3] and 3.9 µM in test [4].

On to `CCOc1c(Br)cc(C2C(C(=O)OC)=CN(C)C=C2C(=O)OC)cc1OC`, for which the IC50 in test [1] worked out at 11.9 µM; in test [2], 0.25 µM; in test [3], 0.072 µM; in test [4], 9.18 µM.

As for `COc1ccc(N2CCN(C(CNC(=O)C3CCCCC3)c3ccc4c(c3)OCO4)CC2)cc1` (stereo not drawn), the IC50 in test [1] is 7.67 µM; in test [2], 7.67 µM; in test [3], 24.9 µM; in test [4] it was 13 µM.

As for `O=C(CCc1ccccc1)c1ccccc1OCC(O)CN1CCCCC1` (stereo not drawn), the IC50 was determined as 7.26 µM in test [1], 5.69 µM in test [2], 4.52 µM in test [3] and 10.7 µM in test [4].

Consider `Cc1ccc(NC(=O)Nc2cccc(Cl)c2)cc1F`, for which the IC50 in test [1] amounted to 0.074 µM; in test [2] it was 10 µM; in test [3], 11.1 µM; in test [4], 14.3 µM.

As to `CCOc1ccc2c(c1)CN(Cc1ccc(Cl)cc1)CO2`, the half-maximal inhibitory concentration (IC50) in test [1] was 10.7 µM; in test [2], 13.3 µM; in test [3] it was 0.26 µM; in test [4], 7.54 µM.

As for `COc1cc(SC)ccc1C(=O)N1CCCC(C)C1` (stereo not drawn), the IC50 in test [1] is 12.3 µM; in test [2] it was more than 25 µM; in test [3] it was 19.4 µM; in test [4], 5.79 µM.

As to `COc1ccc(C=C2SC(Nc3ccc(F)cc3)=NC2=O)c(OC)c1`, the IC50 was 0.836 µM in test [1], 0.082 µM in test [2], 0.1 µM in test [3] and 4.61 µM in test [4].

As for `CC(C)(C)C(=O)Nc1ccc(C(=O)Nc2cccc(-c3nc4ccccc4[nH]3)c2)cc1`, the IC50 in test [1] was 2.19 µM; in test [2], 0.08 µM; in test [3], 0.32 µM; in test [4] it was 5.19 µM.

With `CC1CCN(Cc2ccc(NC(=O)c3cc4ccc5cccnc5c4[nH]3)cc2)CC1`, the IC50 is 13.1 µM in test [1], 15.3 µM in test [2], 9.55 µM in test [3] and 6.41 µM in test [4].

For the compound `COc1ccc(C(O)(CCC(C)C)C(CN2CCOCC2)c2ccc(Cl)cc2)cc1` (stereo not drawn), the IC50 stood at 14.8 µM in test [1], 0.068 µM in test [2], 0.091 µM in test [3] and 3.45 µM in test [4].

`OC1CCCCC1C1(NC(=S)Nc2ccccc2)CCCCC1` (stereo not drawn): the IC50 in test [1] was determined as 14.1 µM; in test [2], 0.93 µM; in test [3], 1.41 µM; in test [4] it was 5.09 µM.
